Results: the NIST ThermoML archive (doi:10.1007/s10765-005-8592-5)
“And” between values parts separate entries of the source, which are not always exact repeats. Identical values can stand only once. ± gives the expanded uncertainty stated by the source.

Test: molar heat capacity at constant volume
Details: Fluid (supercritical or subcritical phases), Vacuum adiabatic calorimetry

CC(C)C [2-methylpropane]
Details	molar heat capacity at constant volume
415.15 K, 4254 kPa	222.08 ± 9 J/K/mol and 230.8 ± 9.3 J/K/mol
420.15 K, 4664 kPa	202.67 ± 8.1 J/K/mol
420.15 K, 4665 kPa	202.96 ± 8.1 J/K/mol
425.15 K, 5082 kPa	186.05 ± 8 J/K/mol
425.15 K, 5083 kPa	187.1 ± 8.4 J/K/mol

CCC [propane]
Details	molar heat capacity at constant volume [J/K/mol]
270.15 K, 4427 kPa	71.74 ± 2.9
275.15 K, 7953 kPa	71.26 ± 2.9
280.15 K, 11458 kPa	71.3 ± 2.9
285.15 K, 14939 kPa	72.63 ± 2.9
290.15 K, 18398 kPa	73.46 ± 3
295.15 K, 21836 kPa	74.57 ± 3
300.15 K, 25251 kPa	74.61 ± 3
305.15 K, 28640 kPa	74.35 ± 3
310.15 K, 6561 kPa	74.57 ± 3
315.15 K, 9049 kPa	75.23 ± 3
320.15 K, 11532 kPa	76.15 ± 3
325.15 K, 3660 kPa	77.96 ± 3.1
325.15 K, 14008 kPa	76.37 ± 3
330.15 K, 5594 kPa	78.75 ± 3.2
330.15 K, 16475 kPa	76.64 ± 3.1
335.15 K, 7530 kPa	78.31 ± 3.1
335.15 K, 18934 kPa	76.9 ± 3.1
340.15 K, 9468 kPa	77.7 ± 3.1
340.15 K, 21386 kPa	77.21 ± 3.1
345.15 K, 11404 kPa	77.26 ± 3.1
345.15 K, 23827 kPa	76.33 ± 3
350.15 K, 13339 kPa	79.46 ± 3.2
350.15 K, 26253 kPa	77.52 ± 3.1
355.15 K, 15273 kPa	77.39 ± 3.1
355.15 K, 28668 kPa	77.43 ± 3.1
360.15 K, 17203 kPa	77.74 ± 3.1
365.15 K, 19126 kPa	78.62 ± 3.1
370.15 K, 21044 kPa	79.15 ± 3.2
375.15 K, 5095 kPa	98.6 ± 4
380.15 K, 5744 kPa	93.04 ± 3.7
385.15 K, 6404 kPa	89.6 ± 3.6
390.15 K, 7072 kPa	86.07 ± 3.4
395.15 K, 7746 kPa	84.84 ± 3.4
400.15 K, 8425 kPa	80.43 ± 5.6
405.15 K, 9109 kPa	78.84 ± 3.2
410.15 K, 9795 kPa	79.99 ± 3.2
420.15 K, 11176 kPa	79.81 ± 3.2
425.15 K, 11869 kPa	81.75 ± 3.3
